Patent publication US10315999B2, “Processes for the preparation of pesticidal compounds” (Dow AgroSciences LLC, priority 2013, dated 2019)
Counter-ions that a name gives are not always drawn. Like-named read-outs stand apart in the source and are kept apart here.

Key:
[1] = system: Green Peach Aphid (Myzus persicae) (MYZUPE); test: Bioassay on Green Peach Aphid (GPA), cabbage seedling foliar spray; type: in vivo; settings: 72 h, read-out: MYZUPE rating (% Control of Mortality, Abbott corrected)
Experimental: Several molecules disclosed herein were tested against GPA using procedures described below.
Cabbage seedling grown in 3-in pots, with 2-3 small (3-5 cm) true leaves, were used as test substrate. The seedlings were infested with […] (wingless adult and nymph stages) one day prior to chemical application. Four pots with individual seedlings were used for each treatment. Test compounds (2 mg) were dissolved in 2 mL of acetone/MeOH (1:1) solvent, forming stock solutions of 1000 ppm test compound. The stock solutions were diluted 5× with 0.025% Tween 20 in water to obtain the solution at 200 ppm test compound. A hand-held aspirator-type sprayer was used for spraying a solution to both sides of the cabbage leaves until runoff. Reference plants (solvent check) were sprayed with the diluent only containing 20% by volume acetone/MeOH (1:1) solvent. Treated plants were held in a holding room for three days at approximately 25° C. and ambient relative humidity (RH) prior to grading. Evaluation was conducted by counting the number of live aphids per plant under a microscope. Percent Control was measured by using Abbott's correction formula (W. S. Abbott, “A Method of Computing the Effectiveness of an Insecticide” J. Econ. Entomol 18 (1925), pp. 265-267) as follows. Corrected % Control=100*(X−Y)/X • where • X=No. of live aphids on solvent check plants and • Y=No. of live aphids on treated plants
The results are indicated in the table entitled “Table 1: GPA (MYZUPE) and sweetpotato whitefly-crawler (BEMITA) Rating Table”.

[2] = system: Sweetpotato Whitefly Crawler (Bemisia tabaci) (BEMITA); test: Bioassay on Sweetpotato Whitefly Crawler, cotton plant foliar spray; type: in vivo; settings: read-out: BEMITA rating (% Control of Mortality, Abbott corrected)
Experimental: Cotton plants grown in 3-inch pots, with 1 small (3-5 cm) true leaf, were used at test substrate. The plants were placed in a room with whitely adults. Adults were allowed to deposit eggs for 2-3 days. After a 2-3 day egg-laying period, plants were taken from the adult whitefly room. Adults were blown off leaves using a hand-held Devilbliss sprayer (23 psi). Plants with egg infestation (100-300 eggs per plant) were placed in a holding room for 5-6 days at 82° F. and 50% RH for egg hatch and crawler stage to develop. Four cotton plants were used for each treatment. Compounds (2 mg) were dissolved in 1 mL of acetone solvent, forming stock solutions of 2000 ppm. The stock solutions were diluted 10× with 0.025% Tween 20 in water to obtain a test solution at 200 ppm. A hand-held Devilbliss sprayer was used for spraying a solution to both sides of cotton leaf until runoff. Reference plants (solvent check) were sprayed with the diluent only. Treated plants were held in a holding room for 8-9 days at approximately 82° F. and 50% RH prior to grading. Evaluation was conducted by counting the number of live nymphs per plant under a microscope.

[3] = 200 ppm spray on cabbage seedlings, live aphids counted after three days
[4] = 200 ppm spray on cotton plants, live nymphs counted after 8-9 days

SMILES: Nc1c[nH]nc1Cl [Compound 1a, 3-Chloro-1H-pyrazol-4-amine hydrochloride]
- mortality at 200 ppm [1]: 0 to 80%
- mortality at 200 ppm [2]: 0 to 80%

SMILES: CC(=O)Nc1c[nH]nc1Cl [Compound 1b, N-(3-Chloro-1H-pyrazol-4-yl)acetamide]
- mortality at 200 ppm [1, 3]: 0 to 80%
- mortality at 200 ppm [2, 4]: 0 to 80%

SMILES: CC(=O)Nc1cn(-c2cccnc2)nc1Cl [Compound 1c, N-(3-Chloro-1-(pyridin-3-yl)-1H-pyrazol-4-yl)acetamide]
- mortality at 200 ppm [1, 3]: 0 to 80%
- mortality at 200 ppm [2, 4]: 0 to 80%

SMILES: CCNc1cn(-c2cccnc2)nc1Cl [Compound 1d, 3-Chloro-N-ethyl-1-(pyridin-3-yl)-1H-pyrazol-amine]
- mortality at 200 ppm [1, 3]: 0 to 80%
- mortality at 200 ppm [2, 4]: 0 to 80%

SMILES: CCN(C(=O)CCSCCC(F)(F)F)c1cn(-c2cccnc2)nc1Cl [Compound 5.1, N-(3-Chloro-1-(pyridin-3-yl)-1H-pyrazol-4-yl)-N-ethyl-3-((3,3,3-trifluoropropyl)thio)propanamide]
- mortality at 200 ppm [1, 3]: 80 to 100%
- mortality at 200 ppm [2, 4]: 80 to 100%

SMILES: CCN(C(=O)CC[S+]([O-])CCC(F)(F)F)c1cn(-c2cccnc2)nc1Cl (stereo not drawn) [Compound 8.1, N-(3-Chloro-1-(pyridin-3-yl)-1H-pyrazol-4-yl)-N-ethyl-3-((3,3,3-trifluoropropyl)sulfoxo)propanamide]
- mortality at 200 ppm [1, 3]: 80 to 100%
- mortality at 200 ppm [2, 4]: 80 to 100%
